Measurements reported in ChEMBL document CHEMBL1143824, “National survey on the susceptibility of Bacteroides fragilis group: report and analysis of trends in the United States from 1997 to 2004” (2007).
≈ marks a conversion by molar mass, not a printed value.

Assays:
Format in all cases: functional
[1] = test system: Parabacteroides distasonis; experiment: Antimicrobial activity against Bacteroides distasonis isolates by agar dilution method
[2] = test system: Bacteroides thetaiotaomicron; experiment: Antimicrobial activity against Bacteroides thetaiotaomicron isolates by agar dilution method
Bacteroides uniformis [3] = experiment: Antimicrobial activity against Bacteroides uniformis isolates by agar dilution method
Parabacteroides merdae [4] = experiment: Antimicrobial activity against Bacteroides merdae assessed as percent resistant isolates
Bacteroides uniformis [5] = experiment: Antimicrobial activity against Bacteroides uniformis assessed as percent resistant isolates
[6] = test system: Parabacteroides distasonis; experiment: Antimicrobial activity against Bacteroides distasonis assessed as percent resistant isolates
[7] = test system: Bacteroides thetaiotaomicron; experiment: Antimicrobial activity against Bacteroides thetaiotaomicron assessed as percent resistant isolates
Bacteroides caccae [8] = experiment: Antimicrobial activity against Bacteroides caccae isolates by agar dilution method
Parabacteroides merdae [9] = experiment: Antimicrobial activity against Bacteroides merdae isolates by agar dilution method
Bacteroides fragilis [10] = experiment: Antimicrobial activity against Bacteroides fragilis assessed as percent resistant isolates
Bacteroides ovatus [11] = experiment: Antimicrobial activity against Bacteroides ovatus isolates by agar dilution method
Bacteroides stercoris [12] = experiment: Antimicrobial activity against Bacteroides stercoris assessed as percent resistant isolates
Bacteroides stercoris [13] = experiment: Antimicrobial activity against Bacteroides stercoris isolates by agar dilution method
Phocaeicola vulgatus [14] = experiment: Antimicrobial activity against Bacteroides vulgatus assessed as percent resistant isolates
Bacteroides ovatus [15] = experiment: Antimicrobial activity against Bacteroides ovatus assessed as percent resistant isolates
Bacteroides fragilis [16] = experiment: Antimicrobial activity against Bacteroides fragilis isolates by agar dilution method
Bacteroides eggerthii [17] = experiment: Antimicrobial activity against Bacteroides eggerthii assessed as percent resistant isolates
Bacteroides eggerthii [18] = experiment: Antimicrobial activity against Bacteroides eggerthii isolates by agar dilution method
Phocaeicola vulgatus [19] = experiment: Antimicrobial activity against Bacteroides vulgatus isolates by agar dilution method
Bacteroides caccae [20] = experiment: Antimicrobial activity against Bacteroides caccae assessed as percent resistant isolates

Row | SMILES | MIC90 [1] [µg/mL] | MIC [2] [µg/mL] | MIC90 [2] [µg/mL] | MIC (Bacteroides uniformis [3]) [µg/mL] | MIC90 (Bacteroides uniformis [3]) [µg/mL] | Activity (Parabacteroides merdae [4]) [%] | Activity (Bacteroides uniformis [5]) [%] | Activity [6] [%] | Activity [7] [%] | MIC (Bacteroides caccae [8]) [µg/mL] | MIC90 (Bacteroides caccae [8]) [µg/mL] | MIC (Parabacteroides merdae [9]) [µg/mL] | MIC90 (Parabacteroides merdae [9]) [µg/mL] | Activity (Bacteroides fragilis [10]) [%] | Activity (Bacteroides stercoris [12]) [%] | MIC (Bacteroides stercoris [13]) [µg/mL] | MIC90 (Bacteroides stercoris [13]) [µg/mL] | Activity (Phocaeicola vulgatus [14]) [%] | MIC (Bacteroides fragilis [16]) [µg/mL] | MIC90 (Bacteroides fragilis [16]) [µg/mL] | also measured
1 | CCC[C@@H]1C[C@@H](C(=O)NC([C@H](C)Cl)[C@H]2O[C@H](SC)[C@H](O)[C@@H](O)[C@H]2O)N(C)C1 (single isomer, unassigned) [CLINDAMYCIN] | 256 (≈ 602 µM) | 6.62 (≈ 15.6 µM) | 256 (≈ 602 µM) | 4.22 (≈ 9.93 µM) | 256 (≈ 602 µM) | 28.2 | 28.9 | 29.6 | 33.3 | 3.63 (≈ 8.54 µM) | 256 (≈ 602 µM) | 3.63 (≈ 8.54 µM) | 256 (≈ 602 µM) | 19.3 | 28.2 | 3.63 (≈ 8.54 µM) | 256 (≈ 602 µM) | 35.3 | 1.89 (≈ 4.45 µM) | 256 (≈ 602 µM) | MIC [1]: 4.51 µg/mL (≈ 10.6 µM); MIC (Bacteroides ovatus [11]): 5.89 µg/mL (≈ 13.9 µM); MIC90 (Bacteroides ovatus [11]): 256 µg/mL (≈ 602 µM); Activity (Bacteroides ovatus [15]): 33.4%; Activity (Bacteroides eggerthii [17]): 28.2%; MIC (Bacteroides eggerthii [18]): 3.63 µg/mL (≈ 8.54 µM); MIC90 (Bacteroides eggerthii [18]): 256 µg/mL (≈ 602 µM); MIC (Phocaeicola vulgatus [19]): 4.31 µg/mL (≈ 10.1 µM); MIC90 (Phocaeicola vulgatus [19]): 256 µg/mL (≈ 602 µM); Activity (Bacteroides caccae [20]): 28.2%
2 | C[C@@H](O)[C@H]1C(=O)N2C(C(=O)O)=C(S[C@@H]3CN[C@H](C(=O)N(C)C)C3)[C@H](C)[C@H]12 [MEROPENEM] | 2 (≈ 5.22 µM) | 0.47 (≈ 1.23 µM) | 1 (≈ 2.61 µM) | 0.41 (≈ 1.07 µM) | 1 (≈ 2.61 µM) | 0.5 | 0.5 | 1.1 | 0.1 | 0.4 (≈ 1.04 µM) | 1 (≈ 2.61 µM) | 0.4 (≈ 1.04 µM) | 1 (≈ 2.61 µM) | 1 | 0.5 | 0.4 (≈ 1.04 µM) | 1 (≈ 2.61 µM) | 0 | 0.38 (≈ 0.991 µM) | 1 (≈ 2.61 µM) | Activity (Bacteroides eggerthii [17]): 0.5%; MIC (Bacteroides eggerthii [18]): 0.4 µg/mL (≈ 1.04 µM); MIC90 (Bacteroides eggerthii [18]): 1 µg/mL (≈ 2.61 µM); MIC (Phocaeicola vulgatus [19]): 0.47 µg/mL (≈ 1.23 µM); MIC90 (Phocaeicola vulgatus [19]): 1 µg/mL (≈ 2.61 µM); Activity (Bacteroides caccae [20]): 0.5%
3 | COc1c(N2C[C@@H]3CCCN[C@@H]3C2)c(F)cc2c(=O)c(C(=O)O)cn(C3CC3)c12 [MOXIFLOXACIN] | 16 (≈ 39.9 µM) | 3.71 (≈ 9.24 µM) | 32 (≈ 79.7 µM) | 5.57 (≈ 13.9 µM) | 32 (≈ 79.7 µM) | 36.4 | 38.6 | 29.2 | 26.3 | 3.85 (≈ 9.59 µM) | 32 (≈ 79.7 µM) | 3.85 (≈ 9.59 µM) | 32 (≈ 79.7 µM) | 27.3 | 36.4 | 3.85 (≈ 9.59 µM) | 32 (≈ 79.7 µM) | 54.7 | 1.83 (≈ 4.56 µM) | 8 (≈ 19.9 µM) | MIC [1]: 2.32 µg/mL (≈ 5.78 µM); MIC (Bacteroides ovatus [11]): 5.49 µg/mL (≈ 13.7 µM); MIC90 (Bacteroides ovatus [11]): 32 µg/mL (≈ 79.7 µM); Activity (Bacteroides ovatus [15]): 38.3%; Activity (Bacteroides eggerthii [17]): 36.4%; MIC (Bacteroides eggerthii [18]): 3.85 µg/mL (≈ 9.59 µM); MIC90 (Bacteroides eggerthii [18]): 32 µg/mL (≈ 79.7 µM); MIC (Phocaeicola vulgatus [19]): 7.92 µg/mL (≈ 19.7 µM); MIC90 (Phocaeicola vulgatus [19]): 64 µg/mL (≈ 159 µM); Activity (Bacteroides caccae [20]): 36.4%
4 | C[C@@H](O)[C@H]1C(=O)N2C(C(=O)O)=C(SCCNC=N)C[C@H]12 [IMIPENEM ANHYDROUS] | 2 (≈ 6.68 µM) | 0.45 (≈ 1.5 µM) | 1 (≈ 3.34 µM) | 0.43 (≈ 1.44 µM) | 1 (≈ 3.34 µM) | 0 | 0.5 | 0.4 | 0.2 | 0.35 (≈ 1.17 µM) | 1 (≈ 3.34 µM) | 0.35 (≈ 1.17 µM) | 1 (≈ 3.34 µM) | 0.5 | 0 | 0.35 (≈ 1.17 µM) | 1 (≈ 3.34 µM) | 0.3 | 0.31 (≈ 1.04 µM) | 1 (≈ 3.34 µM) | MIC [1]: 0.95 µg/mL (≈ 3.17 µM); MIC (Bacteroides ovatus [11]): 0.39 µg/mL (≈ 1.3 µM); MIC90 (Bacteroides ovatus [11]): 1 µg/mL (≈ 3.34 µM); Activity (Bacteroides ovatus [15]): 0.2%; Activity (Bacteroides eggerthii [17]): 0%; MIC (Bacteroides eggerthii [18]): 0.35 µg/mL (≈ 1.17 µM); MIC90 (Bacteroides eggerthii [18]): 1 µg/mL (≈ 3.34 µM); MIC (Phocaeicola vulgatus [19]): 0.5 µg/mL (≈ 1.67 µM); MIC90 (Phocaeicola vulgatus [19]): 1 µg/mL (≈ 3.34 µM); Activity (Bacteroides caccae [20]): 0%
5 | CN(C)c1cc(NC(=O)CNC(C)(C)C)c(O)c2c1C[C@H]1C[C@H]3[C@H](N(C)C)C(O)=C(C(N)=O)C(=O)[C@@]3(O)C(O)=C1C2=O [TIGECYCLINE] | 8 (≈ 13.7 µM) | 1.57 (≈ 2.68 µM) | 8 (≈ 13.7 µM) | 0.77 (≈ 1.31 µM) | 4 (≈ 6.83 µM) | 7.2 | 3.4 | 2.1 | 3.6 | 1.51 (≈ 2.58 µM) | 8 (≈ 13.7 µM) | 1.51 (≈ 2.58 µM) | 8 (≈ 13.7 µM) | 5.1 | 7.2 | 1.51 (≈ 2.58 µM) | 8 (≈ 13.7 µM) | 1.6 | 1.59 (≈ 2.71 µM) | 8 (≈ 13.7 µM) | MIC [1]: 2.09 µg/mL (≈ 3.57 µM); MIC (Bacteroides ovatus [11]): 1.52 µg/mL (≈ 2.6 µM); MIC90 (Bacteroides ovatus [11]): 8 µg/mL (≈ 13.7 µM); Activity (Bacteroides ovatus [15]): 3.3%; Activity (Bacteroides eggerthii [17]): 7.2%; MIC (Bacteroides eggerthii [18]): 1.51 µg/mL (≈ 2.58 µM); MIC90 (Bacteroides eggerthii [18]): 8 µg/mL (≈ 13.7 µM); MIC (Phocaeicola vulgatus [19]): 1.05 µg/mL (≈ 1.79 µM); MIC90 (Phocaeicola vulgatus [19]): 4 µg/mL (≈ 6.83 µM); Activity (Bacteroides caccae [20]): 7.2%
6 | C[C@@H](O)[C@H]1C(=O)N2C(C(=O)O)=C(SC3CNC(C(=O)Nc4cccc(C(=O)O)c4)C3)[C@H](C)[C@H]12 (single isomer, unassigned) [ERTAPENEM] | 4 (≈ 8.41 µM) | 1.69 (≈ 3.55 µM) | 4 (≈ 8.41 µM) | 0.88 (≈ 1.85 µM) | 2 (≈ 4.21 µM) | 0.5 | 0.5 | 1.5 | 0.4 | 1.03 (≈ 2.17 µM) | 4 (≈ 8.41 µM) | 1.03 (≈ 2.17 µM) | 4 (≈ 8.41 µM) | 1.4 | 0.5 | 1.03 (≈ 2.17 µM) | 4 (≈ 8.41 µM) | 0.3 | 0.79 (≈ 1.66 µM) | 2 (≈ 4.21 µM) | MIC [1]: 1.77 µg/mL (≈ 3.72 µM); MIC (Bacteroides ovatus [11]): 1.58 µg/mL (≈ 3.32 µM); MIC90 (Bacteroides ovatus [11]): 4 µg/mL (≈ 8.41 µM); Activity (Bacteroides ovatus [15]): 0.6%; Activity (Bacteroides eggerthii [17]): 0.5%; MIC (Bacteroides eggerthii [18]): 1.03 µg/mL (≈ 2.17 µM); MIC90 (Bacteroides eggerthii [18]): 4 µg/mL (≈ 8.41 µM); MIC (Phocaeicola vulgatus [19]): 0.82 µg/mL (≈ 1.72 µM); MIC90 (Phocaeicola vulgatus [19]): 2 µg/mL (≈ 4.21 µM); Activity (Bacteroides caccae [20]): 0.5%
7 | COC1(NC(=O)Cc2cccs2)C(=O)N2C(C(=O)O)=C(COC(N)=O)CS[C@@H]21 (single isomer, unassigned) [CEFOXITIN] | 128 (≈ 299 µM) | 29.5 (≈ 69 µM) | 64 (≈ 150 µM) | 12.9 (≈ 30.2 µM) | 32 (≈ 74.9 µM) | 10.9 | 7.5 | 29.9 | 16.8 | 17.6 (≈ 41.2 µM) | 64 (≈ 150 µM) | 17.6 (≈ 41.2 µM) | 64 (≈ 150 µM) | 5.2 | 10.9 | 17.6 (≈ 41.2 µM) | 64 (≈ 150 µM) | 0.3 | 15.4 (≈ 36.1 µM) | 32 (≈ 74.9 µM) | MIC [1]: 34.2 µg/mL (≈ 80 µM); MIC (Bacteroides ovatus [11]): 27.2 µg/mL (≈ 63.5 µM); MIC90 (Bacteroides ovatus [11]): 64 µg/mL (≈ 150 µM); Activity (Bacteroides ovatus [15]): 17.2%; Activity (Bacteroides eggerthii [17]): 10.9%; MIC (Bacteroides eggerthii [18]): 17.6 µg/mL (≈ 41.2 µM); MIC90 (Bacteroides eggerthii [18]): 64 µg/mL (≈ 150 µM); MIC (Phocaeicola vulgatus [19]): 10.5 µg/mL (≈ 24.6 µM); MIC90 (Phocaeicola vulgatus [19]): 32 µg/mL (≈ 74.9 µM); Activity (Bacteroides caccae [20]): 10.9%
